Data: patent publication US20250333388A1, “OXADIAZOLONE COMPOUNDS AND HERBICIDAL COMPOSITIONS AND USES THEREOF” (SHANDONG BINNONG TECHNOLOGY CO., LTD., priority 2023, published 2025)

Legend:
Format in all cases: in vivo
crabgrass = experiment: Test of herbicidal activity, post-seedling stem and leaf spray in greenhouse, crabgrass; details: post-seedling stem and leaf spray
Experimental: (§1) Seeds of broadleaf weeds (abutilon, Solanum nigrum) or gramineous weeds (crabgrass, barnyard grass) were sown into nutrient soil in plastic cups, respectively, and then covered with soil, compacted, watered, and further cultivated in a greenhouse by conventional methods. The stems and leaves of the weeds were sprayed when the weeds reached the 2- to 3-leaf stage. The test compounds of the present application were dissolved in acetone respectively, followed by addition of Tween 80. The solution was diluted with a certain amount of water to a certain solubility, and then sprayed onto the plants using a spray tower. The test was repeated three times. After drying naturally in the shade, the plants were put in a greenhouse and managed according to conventional methods. The growth and development of weeds were observed, and the control effect of the test agent on weeds was checked visually periodically, which was expressed by 0-100%, with “0” representing no control effect, and “100%” representing complete killing or severe inhibition.

corn = experiment: Safety testing on corn, stem and leaf spray in greenhouse; details: stem and leaf spray
Experimental: (§2) The seeds of corn and rice were sown into nutrient soil in plastic cups, respectively, then covered with soil, compacted, watered, and further cultivated in a greenhouse by conventional methods. The stems and leaves of the crops were sprayed when the crops reached the 2- to 3-leaf stage. The test compounds of the present application were dissolved in acetone, followed by addition of Tween 80. The solution was then diluted with a certain amount of water to a certain solubility, and sprayed onto the plants using a spray tower. The test was repeated three times. After drying naturally in the shade, the plants were put in a greenhouse and managed according to conventional methods. The growth and development of corn and rice were observed, and the safety of the test agent on corn and rice was checked visually periodically. A safety grading standard was represented by 0-100%, with “O” representing no damage to crops, and “100%” representing complete killing or severe inhibition of crops.

rice = experiment: Safety testing on rice, stem and leaf spray in greenhouse; details: stem and leaf spray
Experimental: as §2

Solanum nigrum = experiment: Test of herbicidal activity, post-seedling stem and leaf spray in greenhouse, Solanum nigrum; details: post-seedling stem and leaf spray
Experimental: as §1

barnyard grass = experiment: Test of herbicidal activity, post-seedling stem and leaf spray in greenhouse, barnyard grass; details: post-seedling stem and leaf spray
Experimental: as §1

abutilon = experiment: Test of herbicidal activity, post-seedling stem and leaf spray in greenhouse, abutilon; details: post-seedling stem and leaf spray
Experimental: as §1

## CS(=O)(=O)c1ccc(C(=O)C2C(=O)CCCC2=O)c(Cl)c1CN1CCOCC1 [Control compound C, reference compound]
crabgrass; dose 37.5 g a.i/ha
  Crabgrass (%) control effect: 20%
crabgrass; dose 75 g a.i/ha
  Crabgrass (%) control effect: 55%
crabgrass; dose 150 g a.i/ha
  Crabgrass (%) control effect: 65%
crabgrass; dose 300 g a.i/ha
  Crabgrass (%) control effect: 70%
corn; dose 37.5 g a.i/ha
  Corn (%) safety (crop damage): 0%
corn; dose 75 g a.i/ha
  Corn (%) safety (crop damage): 0%
corn; dose 150 g a.i/ha
  Corn (%) safety (crop damage): 2%
corn; dose 300 g a.i/ha, 0 = no damage to crops, 100% = complete killing or severe inhibition
  Corn (%) safety (crop damage): 5%
rice; dose 37.5 g a.i/ha
  Rice (%) safety (crop damage): 30%
rice; dose 75 g a.i/ha
  Rice (%) safety (crop damage): 55%
rice; dose 150 g a.i/ha
  Rice (%) safety (crop damage): 75%
rice; dose 300 g a.i/ha
  Rice (%) safety (crop damage): 85%
Solanum nigrum; dose 37.5 g a.i/ha
  Solanum nigrum (%) control effect: 40%
Solanum nigrum; dose 75 g a.i/ha
  Solanum nigrum (%) control effect: 50%
Solanum nigrum; dose 150 g a.i/ha
  Solanum nigrum (%) control effect: 65%
Solanum nigrum; dose 300 g a.i/ha
  Solanum nigrum (%) control effect: 85%
Barnyard grass; dose 37.5 g a.i/ha
  Barnyard grass (%) control effect: 35%
Barnyard grass; dose 75 g a.i/ha
  Barnyard grass (%) control effect: 60%
Barnyard grass; dose 150 g a.i/ha
  Barnyard grass (%) control effect: 70%
Barnyard grass; dose 300 g a.i/ha
  Barnyard grass (%) control effect: 75%
abutilon; dose 37.5 g a.i/ha
  Abutilon (%) control effect: 45%
abutilon; dose 75 g a.i/ha
  Abutilon (%) control effect: 55%
abutilon; dose 150 g a.i/ha
  Abutilon (%) control effect: 70%
abutilon; dose 300 g a.i/ha, 0 = no control effect, 100% = complete killing or severe inhibition
  Abutilon (%) control effect: 90%
